Source: US20080262228A1, “Metabolites of 5-fluoro-8- quinoline and methods of preparation and uses thereof” (Wyeth, priority 2006, published 2008)
Counter-ions that a name gives are not always drawn. Like-named read-outs stand apart in the source and are kept apart here. Values belong to the compound of their own block, whether it stands above or below them.

Assay: In vivo metabolism of [14C]COMPOUND I in Sprague-Dawley rats, single oral 5 mg/kg dose
Parameters: species or system rat
Details: for Chromatographic Distribution of Radioactivity in Pooled Plasma Samples: 5 mg/kg oral [14C]COMPOUND I; for percent of total radioactivity in the fecal extract: pooled 0-24 hr feces; for Source: P, plasma, F, feces, B, brain
Protocol: Dose preparation, animal dosing, and specimen collection were performed at Wyeth Research, Collegeville, Pa. The vehicle contained 2% (w/v) polysorbate 80, NF and 0.5% (w/v) methylcellulose (4000 cps) in water. [^14C]COMPOUND I trisuccinate salt (36.6 mg) and non-labeled COMPOUND I trisuccinate salt (26.7 mg) were dissolved in 1 mL of ethanol and suspended in 35 mL of the vehicle with stirring. The target [^14C]COMPOUND I concentration was approximately 1 mg/mL as free base and 70 μCi/mL with a target specific activity of 70 μCi/mg. Three pre- and post-dose aliquots (100 μL) were taken for the determination of radiochemical purity, drug and radioactivity concentrations and specific activity (see below).
Male rats weighing from 323 to 354 g and female rats weighing from 270 to 317 g at the time of dosing were purchased from Charles River Laboratories (Wilmington, Mass.). Non-fasted rats were given a single 5 mg/kg (˜350 μCi/kg) dose of [^14C]COMPOUND I at a volume of 5.0 mL/kg via intragastric gavage. Three rats were dosed for each time point. Animals were provided Purina rat chow and water ad libitum, and were kept individually in metabolism cages.
Blood samples were collected at 1, 3, 6 and 24 hr from male rats and at 1 and 3 hr from female rats after dose administration by cardiac puncture into tubes containing EDTA as the anticoagulant and placing them on ice. Triplicate aliquots (50 μL) of whole blood were removed and plasma was immediately obtained from the remaining blood by centrifugation at 4° C. Whole brain samples were collected after saline perfusion at 1, 3, 6 and 24 hr post-dose from male rats and at 1 and 3 hr post-dose from female rats. Urine samples were collected on dry ice from male rats at intervals of 0-6 and 6-24 hr post-dose. Feces were collected from male rats at 0-24 hr post-dose at room temperature. The biological specimens and aliquots of the dose suspension were stored at approximately −70° C. until analysis.
Triplicate aliquots of diluted dose (20 μL), dose fractions (10 μL), and plasma (50 μL) and urine (100 μL) from individual rats were analyzed for radioactivity concentrations. Radioactivity determinations were made with a Tri-Carb Model 3100 TR liquid scintillation counter (LSC) (Perkin Elmer) using 5 mL of Ultima Gold as the scintillation fluid.
Brain and fecal samples from individual rats were weighed and homogenized in water at a volume-to-weight ratio of about 3:1 and 5:1, respectively, with a Polytron PT homogenizer at ice-cold temperature. Duplicate aliquots of blood (50 μL), brain homogenates (0.2 g) and fecal homogenates (0.2 g) were placed on Combusto-cones with Combusto-pads and allowed to dry overnight. Samples were combusted with a model 307 Tri-Carb Sample Oxidizer, equipped with an Oximate-80 Robotic Automatic Sampler (Perkin Elmer). The liberated ^14CO2 was trapped with Carbo-Sorb E carbon dioxide absorber, mixed with PermaFluor® E^+ liquid scintillation cocktail, and counted in a Tri-Carb Model 3100 TR/LL liquid scintillation counter (Perkin Elmer).
Plasma samples were pooled by equal volumes from three animals at each time point (1, 3, 6 and 24 hr for males; 1 and 3 hr for females). Aliquots of 2 mL of pooled plasma were mixed with 2 mL of acetonitrile, placed on ice for about 10 min, and then centrifuged at 4° C. The supernatant was transferred to a clean tube. The protein pellets were extracted two more times with 4 mL of acetonitrile. The supernatants from precipitation and extraction of each sample were pooled, mixed, and evaporated at 22° C. under nitrogen in a TurboVap LV evaporator (Caliper Life Sciences, Hopkinton, Mass.) to about 1.0 mL. The concentrated extract was centrifuged, the supernatant volume measured and the extraction efficiency was determined by analyzing duplicate 10 μL aliquots for radioactivity concentrations.

[1] = female, Sprague-Dawley, rat, brain and plasma, po, 5 mg/kg, read-out: Brain/Plasma COMPOUND I Ratio
[2] = male, Sprague-Dawley, rat, brain and plasma, po, 5 mg/kg, read-out: Brain/Plasma COMPOUND I Ratio

- Kp (Sprague-Dawley, rat, brain and plasma, rats, 5 mg/kg oral, read-out: brain-to-plasma ratios of COMPOUND I concentrations): 0.47 to 0.85
- concentration at 1 hr (Sprague-Dawley, rat, female rats, 1 hr, 5 mg/kg oral, mean brain radioactivity x percentage of COMPOUND I in pooled sample, read-out: Brain COMPOUND I Concentrations): 106 ng/g
- concentration at 3 hr (Sprague-Dawley, rat, female rats, 3 hr, 5 mg/kg oral, mean brain radioactivity x percentage of COMPOUND I in pooled sample, read-out: Brain COMPOUND I Concentrations): 34.7 ng/g
- concentration at 1 hr (Sprague-Dawley, rat, male rats, 1 hr, 5 mg/kg oral, mean brain radioactivity x percentage of COMPOUND I in pooled sample, read-out: Brain COMPOUND I Concentrations): 40.9 ng/g
- concentration at 3 hr (Sprague-Dawley, rat, male rats, 3 hr, 5 mg/kg oral, mean brain radioactivity x percentage of COMPOUND I in pooled sample, read-out: Brain COMPOUND I Concentrations): 15.9 ng/g
- concentration at 6 hr (Sprague-Dawley, rat, male rats, 6 hr, 5 mg/kg oral, mean brain radioactivity x percentage of COMPOUND I in pooled sample, read-out: Brain COMPOUND I Concentrations): 10 ng/g
- Chromatographic Distribution of Radioactivity in Pooled Plasma Samples (female rats, 1 hr): 16.4%
- percent of total brain radioactivity (female rats, 1 hr, pooled brain, 5 mg/kg oral): 79.5%
- Chromatographic Distribution of Radioactivity in Pooled Plasma Samples (female rats, 3 hr): 14.6%
- percent of total brain radioactivity (female rats, 3 hr, pooled brain, 5 mg/kg oral): 70.7%
- Kp at 1 h [1]: 0.77
- Kp at 3 h [1]: 0.58
- Chromatographic Distribution of Radioactivity in Pooled Plasma Samples (male rats, 1 hr): 16.9%
- percent of total brain radioactivity (male rats, 1 hr, pooled brain, 5 mg/kg oral): 80.3%
- Chromatographic Distribution of Radioactivity in Pooled Plasma Samples (male rats, 3 hr): 15.5%
- percent of total brain radioactivity (male rats, 3 hr, pooled brain, 5 mg/kg oral): 63.8%
- Chromatographic Distribution of Radioactivity in Pooled Plasma Samples (male rats, 6 hr): 8.7%
- percent of total brain radioactivity (male rats, 6 hr, pooled brain, 5 mg/kg oral): 60.5%
- percent of total plasma radioactivity (male rats, from 1 to 6 hr post-dose, 5 mg/kg oral): 8.7-16.9%
- percent of total radioactivity in the fecal extract (male rats, 5 mg/kg oral): 8.1%
- Kp at 1 h [2]: 0.47
- Kp at 3 h [2]: 0.54
- Kp at 6 h [2]: 0.85
- Source (rats, 5 mg/kg oral): P, B, F
Compound: COc1cc(N2CCN(C3CCN(c4ccc(F)c5cccnc45)CC3)CC2)c2ncccc2c1 [COMPOUND I, 5-Fluoro-8-{4-[4-(6-methoxyquinolin-8-yl)piperazin-1-yl]piperidin-1-yl}quinoline]

- percent of total brain radioactivity (female rats, between 1 and 3 hr post-dose, 5 mg/kg oral): 11.3-13.6%
- percent of total brain radioactivity (male rats, between 1 and 6 hr post-dose, 5 mg/kg oral): 9.0-9.4%
- percent of total radioactivity in the fecal extract (male rats, 5 mg/kg oral): 15.1%
- Source (rats, 5 mg/kg oral): B, F
Compound: Oc1cc(N2CCN(C3CCN(c4ccc(F)c5cccnc45)CC3)CC2)c2ncccc2c1 [Metabolite M21, 8-{4-[1-(5-fluoroquinolin-8-yl)piperidin-4-yl]piperazin-1-yl}quinolin-6-ol trihydrochloride]
